The bioavailability is dose-corrected exposure relative to a reference, in per cent.

Where a name gives a salt, the structure may show the parent alone.

The target in series [1] is T1, recombinant guanylate cyclase reporter cell line (Rattus norvegicus, UniProt P20595).
T1 construct: expressed in transfected cells; host or cells: recombinant reporter cell line
T1 sequence (P20595 1-619): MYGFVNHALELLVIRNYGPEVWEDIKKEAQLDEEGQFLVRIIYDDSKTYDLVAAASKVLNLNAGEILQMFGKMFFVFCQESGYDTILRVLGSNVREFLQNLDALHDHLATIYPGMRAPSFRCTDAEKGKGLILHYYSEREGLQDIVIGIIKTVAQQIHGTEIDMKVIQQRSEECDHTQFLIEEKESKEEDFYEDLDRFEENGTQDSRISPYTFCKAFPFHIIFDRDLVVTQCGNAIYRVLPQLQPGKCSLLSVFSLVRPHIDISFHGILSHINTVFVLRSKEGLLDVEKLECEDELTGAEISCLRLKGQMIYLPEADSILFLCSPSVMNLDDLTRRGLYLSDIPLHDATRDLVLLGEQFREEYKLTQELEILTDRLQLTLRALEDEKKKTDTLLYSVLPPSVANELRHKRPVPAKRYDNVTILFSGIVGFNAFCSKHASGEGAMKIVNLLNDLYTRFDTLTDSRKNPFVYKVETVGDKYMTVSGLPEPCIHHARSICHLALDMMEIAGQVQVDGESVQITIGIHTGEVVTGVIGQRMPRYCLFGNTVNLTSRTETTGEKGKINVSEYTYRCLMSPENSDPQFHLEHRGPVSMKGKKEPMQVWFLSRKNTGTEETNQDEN
T1 sequence (P19686 1-690 partner): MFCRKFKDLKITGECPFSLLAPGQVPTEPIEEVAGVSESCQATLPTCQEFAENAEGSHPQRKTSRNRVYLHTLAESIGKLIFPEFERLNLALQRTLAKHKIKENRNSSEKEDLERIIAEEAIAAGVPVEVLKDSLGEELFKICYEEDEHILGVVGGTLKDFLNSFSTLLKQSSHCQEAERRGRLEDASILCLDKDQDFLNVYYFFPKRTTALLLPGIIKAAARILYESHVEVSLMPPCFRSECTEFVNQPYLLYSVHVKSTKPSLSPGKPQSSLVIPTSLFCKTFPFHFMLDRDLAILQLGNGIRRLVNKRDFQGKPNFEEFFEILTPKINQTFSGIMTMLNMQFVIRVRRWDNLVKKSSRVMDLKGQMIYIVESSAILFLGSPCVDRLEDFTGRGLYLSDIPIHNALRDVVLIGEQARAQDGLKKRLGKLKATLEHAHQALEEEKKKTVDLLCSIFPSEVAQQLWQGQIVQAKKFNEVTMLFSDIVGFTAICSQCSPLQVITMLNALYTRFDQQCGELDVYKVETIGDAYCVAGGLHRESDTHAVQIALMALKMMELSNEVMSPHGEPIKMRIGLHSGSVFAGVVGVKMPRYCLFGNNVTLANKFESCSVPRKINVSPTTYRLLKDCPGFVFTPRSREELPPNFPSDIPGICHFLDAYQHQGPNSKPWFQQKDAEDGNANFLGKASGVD
Kind of series: Effect on a recombinant guanylate cyclase reporter cell line. Format: cell-based. To be noted: for EC50: read-out: EC50 (half maximal effective concentration). As for the experimental part: B-1. Effect on a Recombinant Guanylate Cyclase Reporter Cell Line
The cellular activity of the compounds according to the invention was determined using a recombinant guanylate cyclase reporter cell line, as described in F. Wunder et al., Anal. Biochem. 339, 104-112 (2005).

A short description of series [2]: Pharmacokinetic parameters following intravenous and oral administration in rats. Format: in vivo, male Wistar rats. The text has this:
(§1) • Klaus Witte, Kai Hu, Johanna Swiatek, Claudia Müssig, Georg Ertl and Björn Lemmer: Experimental heart failure in rats: effects on cardiovascular circadian rhythms and on myocardial β-adrenergic signaling. Cardiovasc Res 47 (2): […], 2000; Kozo Okamoto: Spontaneous hypertension in rats. Int Rev Exp Pathol 7: 227-270, 1969; Maarten van den Buuse: Circadian Rhythms of Blood Pressure, Heart Rate, and Locomotor Activity in Spontaneously Hypertensive Rats as Measured With Radio-Telemetry. Physiology & Behavior 55(4): 783-787, 1994. B-5. Determination of Pharmacokinetic Parameters Following Intravenous and Oral Administration
(§2) The pharmacokinetic parameters of the compounds according to the invention were determined in male Wistar rats and/or in female beagles and/or in cynomolgus monkeys and/or in male CD-1 mice. Intravenous administration in the case of mice and rats was carried out by means of a species-specific plasma/DMSO formulation, and in the case of dogs and monkeys by means of a water/PEG400/ethanol formulation. In all species, oral administration of the dissolved substance was performed via gavage, based on a water/PEG400/ethanol formulation.
(§3) An internal standard (which may also be a chemically unrelated substance) was added to the samples of the compounds of the invention, calibration samples and qualifiers, and there followed protein precipitation by means of acetonitrile in excess. Addition of a buffer solution matched to the LC conditions, and subsequent vortexing, was followed by centrifugation at 1000 g. The supernatant was analysed by LC-MS/MS using C18 reversed-phase columns and variable mobile phase mixtures. The substances were quantified via the peak heights or areas from extracted ion chromatograms of specific selected ion monitoring experiments.
(§4) The plasma concentration/time plots determined were used to calculate the pharmacokinetic parameters such as AUC, Cmax, t1/2 (terminal half-life), F (bioavailability), MRT (mean residence time) and CL (clearance), by means of a validated pharmacokinetic calculation program.
(§5) Since the substance quantification was performed in plasma, it was necessary to determine the blood/plasma distribution of the substance in order to be able to adjust the pharmacokinetic parameters correspondingly.
(§6) For this purpose, a defined amount of substance was incubated in K3 EDTA whole blood of the species in question in a rocking roller mixer for 20 min. After centrifugation at 1000 g, the plasma concentration was measured (by means of LC-MS/MS; see above) and determined by calculating the ratio of the Cblood/Cplasma value.

Series [3] is described as follows: Pharmacokinetic parameters following intravenous and oral administration in dogs. The note with it: for bioavailability: female, beagle, dog, plasma, read-out: F (bioavailability). Format: in vivo, female beagles.
Text: as §1, §2, §3, §4, §5, §6

[4] abbreviates: rats, intravenous administration.
Setting [5] is: rats, oral administration (p.o.).

On to `CC(C)CN1CCN(c2ccc(-c3ccc(Cl)cc3N3CCCC(n4ncc(C(=O)O)c4C(F)F)C3)cc2)CC1` (single isomer, unassigned; enantiomer 2) [Example 3, 1-{1-[4-Chloro-4′-(4-isobutylpiperazin-1-yl)[biphenyl]-2-yl]piperidin-3-yl}-5-(difluoromethyl)-1H-pyrazole-4-carboxylic acid hydrochloride (Enantiomer 2)], for which, in series [1], the “MEC (minimum effective concentration)” value was found to be 0.6 nM and the EC50 worked out at 2.7 nM.
In turn, `CC(C)CN1CCN(c2ccc(-c3ccc(Cl)cc3N3CCCC(n4ncc(C(=O)O)c4C(F)F)C3)cc2)CC1` (single isomer, unassigned; enantiomer 1) [Example 1, 1-[1-{4-Chloro-4′-[4-(2-methylpropyl)piperazin-1-yl][1,1′-biphenyl]-2-yl}piperidin-3-yl]-5-(difluoromethyl)-1H-pyrazole-4-carboxylic acid hydrochloride (Enantiomer 1)] returned an AUCnorm in series [2] (setting [4]) of 1.77 kg·h/L. In addition, in series [2] (setting [5]), the AUCnorm stood at 0.57 kg·h/L and the “F (bioavailability)” value is given as 31.4%. For the same compound, the “MEC (minimum effective concentration)” value in series [1] was determined as 2.3 nM.
For the compound `CC(C)CN1CCN(c2ccc(-c3ccc(Cl)cc3N3CCCC(n4ncc(C(=O)O)c4C(F)F)C3)cc2)CC1` (single isomer, unassigned; enantiomer 2) [Example 2, 1-[1-{4-Chloro-4′-[4-(2-methylpropyl)piperazin-1-yl][1,1′-biphenyl]-2-yl}piperidin-3-yl]-5-(difluoromethyl)-1H-pyrazole-4-carboxylic acid (Enantiomer 2)], in series [2] (in rats as well as in dogs), the “lower plasma clearance (CLplasma) in comparison to example 174 in WO 2012/058132” value was “up to 10 times”. Further, the AUCnorm in series [2] (setting [4]) is 7.08 kg·h/L; in series [2] (setting [5]), 3.77 kg·h/L; in series [3] (intravenous administration) it was 81.7 kg·h/L; in series [3] (oral administration (p.o.)) it was 67.7 kg·h/L. Further, the “F (bioavailability)” value in series [2] (setting [5]) stood at 53.3%. Besides, in series [1], the “MEC (minimum effective concentration)” value was 1.0 nM. In addition, the EC50 in series [1] came to 8.6 nM. The bioavailability in series [3] (oral administration (p.o.)) stood at 82.8%.
For the compound `O=C(O)c1cnn(-c2cccc(-c3cc(Cl)ccc3-c3ccc(N4CCN(CC5CC5)CC4)cc3)n2)c1C(F)(F)F` [174 (WO2012/058132), reference compound], the bioavailability in series [2] (male, Wistar, rat, plasma, po, rats, oral administration (p.o.), read-out: F (bioavailability)) was 81.8%; in series [3] (oral administration (p.o.)), 41.6%. In addition, the AUCnorm is 0.77 kg·h/L in series [2] (setting [4]), 0.63 kg·h/L in series [2] (setting [5]), 5.00 kg·h/L in series [3] (intravenous administration) and 2.08 kg·h/L in series [3] (oral administration (p.o.)).

For the origin of these results see patent US12595247B2, “Substituted pyrazolo piperidine carboxylic acids” (Bayer Aktiengesellschaft, priority 2020, dated 2026).
